Experimental data: patent US20220119354A1, “DIAMINO-SUBSTITUTED PYRIDINES AND PYRIMIDINES AS HERBICIDES” (FMC Corporation, priority 2019, published 2022)

What was measured:
Assay type in all cases: in vivo
[1] = system: barnyardgrass (Echinochloa crus-galli); assay: Test B flooded paddy test, barnyardgrass; conditions: Flood, 250 g ai/ha, applied to paddy water, 2-leaf stage, visual evaluation after 13 to 15 d
Outline: (§1)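 Rating: 0 = no effect, 100 = complete control, visual, relative to untreated plants. Conditions: 2-leaf stage, 3 cm flood kept constant, compound put directly into water, 13–15 d greenhouse.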

[2] = system: pigweed (Amaranthus retroflexus); assay: Test A postemergence, pigweed; conditions: 0 to 100 scale; for Plant response rating, Pigweed: 0 no effect, 100 complete control; for Pigweed plant response rating: 0 is no effect, 100 is complete control
Outline: (§2)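 Plants grown in a loam soil and sand blend were treated either preemergence by directed soil spray or postemergence when 2 to 10 cm tall (one- to two-leaf stage). Formulation: non-phytotoxic solvent mixture with surfactant. Greenhouse hold ~10 d, then visual injury assessment on a 0–100 scale.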

[3] = system: barnyardgrass (Echinochloa crus-galli); assay: Test A preemergence, barnyardgrass; conditions: 0 to 100 scale, 0 is no effect, 100 is complete control
Outline: as §2

[4] = system: ryegrass, Italian (Lolium multiflorum); assay: Test A postemergence, Italian ryegrass; conditions: 0 to 100 scale; for Plant response rating, Ryegrass, Italian: 0 no effect, 100 complete control; for Ryegrass, Italian plant response rating: 0 is no effect, 100 is complete control
Outline: as §2

[5] = system: blackgrass (Alopecurus myosuroides); assay: Test A postemergence, blackgrass; conditions: 0 to 100 scale; for Plant response rating, Blackgrass: 0 no effect, 100 complete control; for Blackgrass plant response rating: 0 is no effect, 100 is complete control
Outline: as §2

[6] = system: foxtail, giant (Setaria faberii); assay: Test A preemergence, giant foxtail; conditions: 0 to 100 scale, 0 is no effect, 100 is complete control
Outline: as §2

corn (Zea mays) = assay: Test A postemergence, corn; conditions: 0 to 100 scale; for Plant response rating, Corn: 0 no effect, 100 complete control; for Corn plant response rating: 0 is no effect, 100 is complete control
Outline: as §2

[7] = system: galium (catchweed bedstraw, Galium aparine); assay: Test A postemergence, galium; conditions: 0 to 100 scale; for Plant response rating, Galium: 0 no effect, 100 complete control; for Galium plant response rating: 0 is no effect, 100 is complete control
Outline: as §2

[8] = system: barnyardgrass (Echinochloa crus-galli); assay: Test A postemergence, barnyardgrass; conditions: 0 to 100 scale; for Plant response rating, Barnyardgrass: 0 no effect, 100 complete control; for Barnyardgrass plant response rating: 0 is no effect, 100 is complete control
Outline: as §2

rice (Oryza sativa) = assay: Test B flooded paddy test, rice; conditions: Flood, 250 g ai/ha, applied to paddy water, 2-leaf stage, visual evaluation after 13 to 15 d
Outline: as §1

[9] = system: wheat (Triticum aestivum); assay: Test A postemergence, wheat; conditions: 0 to 100 scale; for Plant response rating, Wheat: 0 no effect, 100 complete control; for Wheat plant response rating: 0 is no effect, 100 is complete control
Outline: as §2

kochia (Kochia scoparia) [10] = assay: Test A preemergence, kochia; conditions: 0 to 100 scale, 0 is no effect, 100 is complete control
Outline: as §2

[11] = system: ragweed (common ragweed, Ambrosia elatior); assay: Test A postemergence, ragweed; conditions: 0 to 100 scale; for Plant response rating, Ragweed: 0 no effect, 100 complete control; for Ragweed plant response rating: 0 is no effect, 100 is complete control
Outline: as §2

[12] = system: sedge, umbrella (small-flower umbrella sedge, Cyperus difformis); assay: Test B flooded paddy test, umbrella sedge; conditions: Flood, 250 g ai/ha, applied to paddy water, 2-leaf stage, visual evaluation after 13 to 15 d
Outline: as §1

[13] = system: ragweed (common ragweed, Ambrosia elatior); assay: Test A preemergence, ragweed; conditions: 0 to 100 scale, 0 is no effect, 100 is complete control
Outline: as §2

[14] = system: ducksalad (Heteranthera limosa); assay: Test B flooded paddy test, ducksalad; conditions: Flood, 250 g ai/ha, applied to paddy water, 2-leaf stage, visual evaluation after 13 to 15 d
Outline: as §1

kochia (Kochia scoparia) [15] = assay: Test A postemergence, kochia; conditions: 0 to 100 scale; for Plant response rating, Kochia: 0 no effect, 100 complete control; for Kochia plant response rating: 0 is no effect, 100 is complete control
Outline: as §2

[16] = system: pigweed (Amaranthus retroflexus); assay: Test A preemergence, pigweed; conditions: 0 to 100 scale, 0 is no effect, 100 is complete control
Outline: as §2

[17] = system: ryegrass, Italian (Lolium multiflorum); assay: Test A preemergence, Italian ryegrass; conditions: 0 to 100 scale, 0 is no effect, 100 is complete control
Outline: as §2

[18] = system: foxtail, giant (Setaria faberii); assay: Test A postemergence, giant foxtail; conditions: 0 to 100 scale; for Plant response rating, Foxtail, Giant: 0 no effect, 100 complete control; for Foxtail, Giant plant response rating: 0 is no effect, 100 is complete control
Outline: as §2

SMILES	Plant response rating, Barnyardgrass (0 to 100 scale, 0 is no effect, 100 is complete control) [1]	Plant response rating, Pigweed ([2]; 125 g ai/ha)	Barnyardgrass plant response rating ([3]; 125 g ai/ha)	Barnyardgrass plant response rating ([3]; 500 g ai/ha)	Plant response rating, Ryegrass, Italian ([4]; 125 g ai/ha)	Plant response rating, Blackgrass ([5]; 125 g ai/ha)	Foxtail, Giant plant response rating ([6]; 125 g ai/ha)	Foxtail, Giant plant response rating ([6]; 500 g ai/ha)	Plant response rating, Corn (corn (Zea mays); 125 g ai/ha)	Plant response rating, Galium ([7]; 125 g ai/ha)	Plant response rating, Barnyardgrass ([8]; 125 g ai/ha)	Plant response rating, Rice (0 to 100 scale, 0 is no effect, 100 is complete control) (rice (Oryza sativa))	Plant response rating, Wheat ([9]; 125 g ai/ha)	Kochia plant response rating (kochia (Kochia scoparia) [10]; 125 g ai/ha)	Kochia plant response rating (kochia (Kochia scoparia) [10]; 500 g ai/ha)	Plant response rating, Ragweed ([11]; 125 g ai/ha)	Plant response rating, Sedge, Umbrella (0 to 100 scale, 0 is no effect, 100 is complete control) [12]	Ragweed plant response rating ([13]; 125 g ai/ha)	Ragweed plant response rating ([13]; 500 g ai/ha)	Plant response rating, Ducksalad (0 to 100 scale, 0 is no effect, 100 is complete control) [14]	further results
CC(Nc1ncc(C(F)(F)F)c(N)n1)c1coc2cc(F)ccc12 (racemic) [Compound 51]	0	100	40	100	30	0	10	90	0	70	0	0	0	90	100	90	0	100	100	0	Pigweed plant response rating ([2]; 500 g ai/ha): 100; Ryegrass, Italian plant response rating ([4]; 500 g ai/ha): 50; Blackgrass plant response rating ([5]; 500 g ai/ha): 10; Corn plant response rating (corn (Zea mays); 500 g ai/ha): 10; Galium plant response rating ([7]; 500 g ai/ha): 90; Barnyardgrass plant response rating ([8]; 500 g ai/ha): 50; Wheat plant response rating ([9]; 500 g ai/ha): 30; Ragweed plant response rating ([11]; 500 g ai/ha): 100; Plant response rating, Kochia (kochia (Kochia scoparia) [15]; 125 g ai/ha): 80; Kochia plant response rating (kochia (Kochia scoparia) [15]; 500 g ai/ha): 90; Pigweed plant response rating ([16]; 125 g ai/ha): 90; Pigweed plant response rating ([16]; 500 g ai/ha): 100; Ryegrass, Italian plant response rating ([17]; 125 g ai/ha): 60; Ryegrass, Italian plant response rating ([17]; 500 g ai/ha): 80; Plant response rating, Foxtail, Giant ([18]; 125 g ai/ha): 20; Foxtail, Giant plant response rating ([18]; 500 g ai/ha): 50
CCC(Nc1ncc(C(F)(F)F)c(N)n1)c1coc2ccccc12 (racemic) [Compound 53]	0	60	0	80	20	0	90	90	0	30	0	0	0	60	90	20	0	100	90	0	Pigweed plant response rating ([2]; 500 g ai/ha): 100; Ryegrass, Italian plant response rating ([4]; 500 g ai/ha): 60; Blackgrass plant response rating ([5]; 500 g ai/ha): 0; Corn plant response rating (corn (Zea mays); 500 g ai/ha): 0; Galium plant response rating ([7]; 500 g ai/ha): 80; Barnyardgrass plant response rating ([8]; 500 g ai/ha): 30; Wheat plant response rating ([9]; 500 g ai/ha): 0; Ragweed plant response rating ([11]; 500 g ai/ha): 80; Plant response rating, Kochia (kochia (Kochia scoparia) [15]; 125 g ai/ha): 50; Kochia plant response rating (kochia (Kochia scoparia) [15]; 500 g ai/ha): 90; Pigweed plant response rating ([16]; 125 g ai/ha): 80; Pigweed plant response rating ([16]; 500 g ai/ha): 90; Ryegrass, Italian plant response rating ([17]; 125 g ai/ha): 20; Ryegrass, Italian plant response rating ([17]; 500 g ai/ha): 20; Plant response rating, Foxtail, Giant ([18]; 125 g ai/ha): 10; Foxtail, Giant plant response rating ([18]; 500 g ai/ha): 30
CC(Nc1nc(N)c(C(F)(F)F)c(C(F)(F)F)n1)c1cc2ccccc2o1 (racemic) [Compound 58]	0	20	0	0	0	0	0	0	0	0	0	0	0	0	0	0	0	0	0	0	Plant response rating, Pigweed ([2]; 500 g ai/ha): 60; Plant response rating, Ryegrass, Italian ([4]; 500 g ai/ha): 0; Plant response rating, Blackgrass ([5]; 500 g ai/ha): 0; Plant response rating, Corn (corn (Zea mays); 500 g ai/ha): 0; Plant response rating, Galium ([7]; 500 g ai/ha): 20; Plant response rating, Barnyardgrass ([8]; 500 g ai/ha): 50; Plant response rating, Wheat ([9]; 500 g ai/ha): 0; Plant response rating, Ragweed ([11]; 500 g ai/ha): 20; Plant response rating, Kochia (kochia (Kochia scoparia) [15]; 125 g ai/ha): 30; Plant response rating, Kochia (kochia (Kochia scoparia) [15]; 500 g ai/ha): 80; Pigweed plant response rating ([16]; 125 g ai/ha): 0; Pigweed plant response rating ([16]; 500 g ai/ha): 0; Ryegrass, Italian plant response rating ([17]; 125 g ai/ha): 0; Ryegrass, Italian plant response rating ([17]; 500 g ai/ha): 0; Plant response rating, Foxtail, Giant ([18]; 125 g ai/ha): 0; Plant response rating, Foxtail, Giant ([18]; 500 g ai/ha): 10
CC(Nc1nc(N)c(C(F)(F)F)c(C(F)(F)F)n1)C1Cc2ccccc2C1 (racemic) [Compound 69]	0	20	0	0	0	0	0	0	20	0	0	0	0	0	70	0	0	0	70	0	Plant response rating, Pigweed ([2]; 500 g ai/ha): 80; Plant response rating, Ryegrass, Italian ([4]; 500 g ai/ha): 0; Plant response rating, Blackgrass ([5]; 500 g ai/ha): 30; Plant response rating, Corn (corn (Zea mays); 500 g ai/ha): 0; Plant response rating, Galium ([7]; 500 g ai/ha): 0; Plant response rating, Barnyardgrass ([8]; 500 g ai/ha): 0; Plant response rating, Wheat ([9]; 500 g ai/ha): 0; Plant response rating, Ragweed ([11]; 500 g ai/ha): 0; Plant response rating, Kochia (kochia (Kochia scoparia) [15]; 125 g ai/ha): 30; Plant response rating, Kochia (kochia (Kochia scoparia) [15]; 500 g ai/ha): 80; Pigweed plant response rating ([16]; 125 g ai/ha): 0; Pigweed plant response rating ([16]; 500 g ai/ha): 70; Ryegrass, Italian plant response rating ([17]; 125 g ai/ha): 0; Ryegrass, Italian plant response rating ([17]; 500 g ai/ha): 0; Plant response rating, Foxtail, Giant ([18]; 125 g ai/ha): 0; Plant response rating, Foxtail, Giant ([18]; 500 g ai/ha): 0
CC(Nc1ncc(C(F)(F)F)c(N)n1)c1cc2ccc(Cl)cc2s1 (racemic) [Compound 70]	0	100	0	30	0	0	0	50	0	0	20	0	0	0	40	0	0	20	90	0	Plant response rating, Pigweed ([2]; 500 g ai/ha): 100; Plant response rating, Ryegrass, Italian ([4]; 500 g ai/ha): 0; Plant response rating, Blackgrass ([5]; 500 g ai/ha): 30; Plant response rating, Corn (corn (Zea mays); 500 g ai/ha): 0; Plant response rating, Galium ([7]; 500 g ai/ha): 80; Plant response rating, Barnyardgrass ([8]; 500 g ai/ha): 70; Plant response rating, Wheat ([9]; 500 g ai/ha): 0; Plant response rating, Ragweed ([11]; 500 g ai/ha): 50; Plant response rating, Kochia (kochia (Kochia scoparia) [15]; 125 g ai/ha): 50; Plant response rating, Kochia (kochia (Kochia scoparia) [15]; 500 g ai/ha): 80; Pigweed plant response rating ([16]; 125 g ai/ha): 30; Pigweed plant response rating ([16]; 500 g ai/ha): 90; Ryegrass, Italian plant response rating ([17]; 125 g ai/ha): 0; Ryegrass, Italian plant response rating ([17]; 500 g ai/ha): 0; Plant response rating, Foxtail, Giant ([18]; 125 g ai/ha): 0; Plant response rating, Foxtail, Giant ([18]; 500 g ai/ha): 60
